Measured values: PubChem BioAssay (NCI)
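Cells were grown in 96-well plates and exposed to each compound for 48 hours at five concentrations; endpoints were interpolated linearly between bracketing concentrations, or set to the highest concentration if not reached. GI50: concentration for 50% inhibition of growth. TGI is the concentration that stops growth completely.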

Columns and labels:
Assay in all cases: inhibition of tumour cell growth, NCI panel, 48 h
SF-268 CNS = tested on: SF-268 CNS
CAKI-1 renal = tested on: CAKI-1 renal
SF-295 CNS = tested on: SF-295 CNS
PC-3 prostate = tested on: PC-3 prostate
SN12C renal = tested on: SN12C renal
OVCAR-5 ovarian = tested on: OVCAR-5 ovarian
HOP-92 NSCLC = tested on: HOP-92 NSCLC
IGROV1 ovarian = tested on: IGROV1 ovarian
HT29 colon = tested on: HT29 colon
ACHN renal = tested on: ACHN renal
UACC-257 melanoma = tested on: UACC-257 melanoma
SK-OV-3 ovarian = tested on: SK-OV-3 ovarian
BT-549 breast = tested on: BT-549 breast
TK-10 renal = tested on: TK-10 renal
UO-31 renal = tested on: UO-31 renal
MDA-MB-435 = tested on: MDA-MB-435
MCF7 breast = tested on: MCF7 breast
SK-MEL-28 melanoma = tested on: SK-MEL-28 melanoma
KM12 colon = tested on: KM12 colon
786-0 renal = tested on: 786-0 renal
UACC-62 melanoma = tested on: UACC-62 melanoma
NCI-H23 lung = tested on: NCI-H23 lung
T-47D breast = tested on: T-47D breast
U251 CNS = tested on: U251 CNS
RPMI-8226 leukemia = tested on: RPMI-8226 leukemia
OVCAR-3 ovarian = tested on: OVCAR-3 ovarian
OVCAR-4 ovarian = tested on: OVCAR-4 ovarian
DU-145 prostate = tested on: DU-145 prostate
A498 renal = tested on: A498 renal
HS 578T breast = tested on: HS 578T breast
K-562 leukemia = tested on: K-562 leukemia
CCRF-CEM leukemia = tested on: CCRF-CEM leukemia
NCI/ADR-RES ovarian = tested on: NCI/ADR-RES ovarian
SNB-19 CNS = tested on: SNB-19 CNS
NCI-H226 lung = tested on: NCI-H226 lung
HCC-2998 colon = tested on: HCC-2998 colon
NCI-H460 lung = tested on: NCI-H460 lung
SW-620 colon = tested on: SW-620 colon
COLO 205 colon = tested on: COLO 205 colon
HCT-15 colon = tested on: HCT-15 colon
HL-60(TB) leukemia = tested on: HL-60(TB) leukemia
SK-MEL-5 melanoma = tested on: SK-MEL-5 melanoma
RXF 393 renal = tested on: RXF 393 renal
M14 melanoma = tested on: M14 melanoma
EKVX NSCLC = tested on: EKVX NSCLC
SF-539 CNS = tested on: SF-539 CNS
SK-MEL-2 melanoma = tested on: SK-MEL-2 melanoma
MALME-3M melanoma = tested on: MALME-3M melanoma
SNB-75 CNS = tested on: SNB-75 CNS
HCT-116 colon = tested on: HCT-116 colon
A549 NSCLC = tested on: A549 NSCLC
MOLT-4 leukemia = tested on: MOLT-4 leukemia
SR leukemia = tested on: SR leukemia
OVCAR-8 ovarian = tested on: OVCAR-8 ovarian
MDA-MB-231 breast = tested on: MDA-MB-231 breast
HOP-62 NSCLC = tested on: HOP-62 NSCLC

CNC1CCc2c(sc(NC(=O)c3ccc(C(C)(C)C)cc3)c2C(N)=O)C1 (configuration not stated)
GI50 (SF-268 CNS): 2.44 µM | TGI (SF-268 CNS): 5.42 µM | GI50 (CAKI-1 renal): 1.9 µM | TGI (CAKI-1 renal): 3.81 µM | GI50 (SF-295 CNS): 1.76 µM | TGI (SF-295 CNS): 3.27 µM | GI50 (PC-3 prostate): 1.73 µM | TGI (PC-3 prostate): 4.02 µM | GI50 (SN12C renal): 2.4 µM | TGI (SN12C renal): 7.34 µM | GI50 (OVCAR-5 ovarian): 2 µM | TGI (OVCAR-5 ovarian): 4.39 µM | GI50 (HOP-92 NSCLC): 0.944 µM | TGI (HOP-92 NSCLC): 5.04 µM | GI50 (IGROV1 ovarian): 1.59 µM | TGI (IGROV1 ovarian): 3.58 µM | GI50 (HT29 colon): 1.29 µM | TGI (HT29 colon): 3.71 µM | GI50 (ACHN renal): 2.01 µM | TGI (ACHN renal): 4.23 µM | GI50 (UACC-257 melanoma): 1.92 µM | TGI (UACC-257 melanoma): 4.43 µM | GI50 (SK-OV-3 ovarian): 2.35 µM | TGI (SK-OV-3 ovarian): 6.14 µM | GI50 (BT-549 breast): 1.85 µM | TGI (BT-549 breast): 4.67 µM | GI50 (TK-10 renal): 2 µM | TGI (TK-10 renal): 3.76 µM | GI50 (UO-31 renal): 1.51 µM | TGI (UO-31 renal): 3.46 µM | GI50 (MDA-MB-435): 1.75 µM | TGI (MDA-MB-435): 3.4 µM | GI50 (MCF7 breast): 1.65 µM | TGI (MCF7 breast): 3.53 µM | GI50 (SK-MEL-28 melanoma): 1.73 µM | TGI (SK-MEL-28 melanoma): 3.25 µM | GI50 (KM12 colon): 1.89 µM | TGI (KM12 colon): 3.61 µM | GI50 (786-0 renal): 1.61 µM | TGI (786-0 renal): 3.1 µM | GI50 (UACC-62 melanoma): 1.66 µM | TGI (UACC-62 melanoma): 3.06 µM | GI50 (NCI-H23 lung): 1.67 µM | TGI (NCI-H23 lung): 3.62 µM | GI50 (T-47D breast): 2.06 µM | TGI (T-47D breast): 5.59 µM | GI50 (U251 CNS): 1.81 µM | TGI (U251 CNS): 3.79 µM | GI50 (RPMI-8226 leukemia): 1.95 µM | TGI (RPMI-8226 leukemia): 4.89 µM | GI50 (OVCAR-3 ovarian): 1.92 µM | TGI (OVCAR-3 ovarian): 3.99 µM | GI50 (OVCAR-4 ovarian): 2.05 µM | TGI (OVCAR-4 ovarian): 5.03 µM | GI50 (DU-145 prostate): 1.95 µM | TGI (DU-145 prostate): 4.03 µM | GI50 (A498 renal): 1.48 µM | TGI (A498 renal): 4.28 µM | GI50 (HS 578T breast): 2.15 µM | TGI (HS 578T breast): 5.43 µM | GI50 (K-562 leukemia): 1.32 µM | TGI (K-562 leukemia): 3.34 µM | GI50 (CCRF-CEM leukemia): 1.52 µM | TGI (CCRF-CEM leukemia): 4.85 µM | GI50 (NCI/ADR-RES ovarian): 2.34 µM | TGI (NCI/ADR-RES ovarian): 6.34 µM | GI50 (SNB-19 CNS): 1.87 µM | TGI (SNB-19 CNS): 3.64 µM | GI50 (NCI-H226 lung): 1.87 µM | TGI (NCI-H226 lung): 4.02 µM | GI50 (HCC-2998 colon): 1.76 µM | TGI (HCC-2998 colon): 3.34 µM | GI50 (NCI-H460 lung): 1.63 µM | TGI (NCI-H460 lung): 3.33 µM | GI50 (SW-620 colon): 1.91 µM | TGI (SW-620 colon): 3.66 µM | GI50 (COLO 205 colon): 1.73 µM | TGI (COLO 205 colon): 3.54 µM | GI50 (HCT-15 colon): 1.52 µM | TGI (HCT-15 colon): 3.15 µM | GI50 (HL-60(TB) leukemia): 0.634 µM | TGI (HL-60(TB) leukemia): 2.36 µM | GI50 (SK-MEL-5 melanoma): 1.7 µM | TGI (SK-MEL-5 melanoma): 3.08 µM | GI50 (RXF 393 renal): 1.42 µM | TGI (RXF 393 renal): 2.81 µM | GI50 (M14 melanoma): 1.75 µM | TGI (M14 melanoma): 3.6 µM | GI50 (EKVX NSCLC): 1.72 µM | TGI (EKVX NSCLC): 4.26 µM | GI50 (SF-539 CNS): 1.66 µM | TGI (SF-539 CNS): 3.07 µM | GI50 (SK-MEL-2 melanoma): 2 µM | TGI (SK-MEL-2 melanoma): 4.1 µM | GI50 (MALME-3M melanoma): 1.63 µM | TGI (MALME-3M melanoma): 3.26 µM | GI50 (SNB-75 CNS): 2.02 µM | TGI (SNB-75 CNS): 5.66 µM | GI50 (HCT-116 colon): 1.34 µM | TGI (HCT-116 colon): 2.66 µM | GI50 (A549 NSCLC): 2.09 µM | TGI (A549 NSCLC): 4.46 µM | GI50 (MOLT-4 leukemia): 1.74 µM | TGI (MOLT-4 leukemia): 4.09 µM | GI50 (SR leukemia): 1.29 µM | TGI (SR leukemia): 3.51 µM | GI50 (OVCAR-8 ovarian): 2.66 µM | TGI (OVCAR-8 ovarian): 6.93 µM | GI50 (MDA-MB-231 breast): 1.61 µM | TGI (MDA-MB-231 breast): 2.97 µM | GI50 (HOP-62 NSCLC): 1.55 µM | TGI (HOP-62 NSCLC): 3.6 µM
